Experimental data from patent US9309200B2, “Benzazepine derivatives, pharmaceutical compositions containing them, and their use in therapy” (AbbVie Deutschland GmbH & Co. KG, priority 2011, dated 2016).

Columns and labels:
[1] = Metabolic stability in human liver microsomes (microsomal clearance); format: in vitro ADME; conditions: human liver microsomes 0.25 mg protein/ml, 0.5 μM test substance, NADPH 1.0 mM, pH 7.4, 37° C.
Method: The metabolic stability of a compound can be measured for example by incubating a solution of this compound with liver microsomes from particular species (for example rat, dog or human) and determining the half-life of the compound under these conditions (R S Obach, Curr Opin Drug Discov Devel. 2001, 4, 36-44). It is possible in this connection to conclude from an observed longer half-life that the metabolic stability of the compound is improved. The stability in the presence of human liver microsomes is of particular interest because it makes it possible to predict the metabolic degradation of the compound in the human liver. Compounds with increased metabolic stability (measured in the liver microsome test) are therefore probably also degraded more slowly in the liver. The slower metabolic degradation in the liver may lead to higher and/or longer-lasting concentrations (active levels) of the compound in the body, so that the elimination half-life of the compounds of the invention is increased. Increased and/or longer-lasting active levels may lead to a better activity of the compound in therapeutic treatment. In addition, an improved metabolic stability may lead to an increased bioavailability after oral administration, because the compound is subject, after absorption in the intestine, to less metabolic degradation in the liver (so-called first pass effect). An increased oral bioavailability may, owing to an increased concentration (active level) of the compound, lead to a better activity of the compound after oral administration.
Metabolic stability was determined as follows:
0.5 μM test substance was preincubated together with human liver microsomes (0.25 mg of microsomal protein/ml) in 0.05 M potassium phosphate buffer of pH 7.4 in microtiter plates at 37° C. for 5 min. The reaction was started by adding NADPH (1.0 mM). After 0, 5, 10, 15, 20 and 30 min, 65 μl aliquots were removed, and the reaction was immediately stopped and cooled with twice the amount of ethanol. The samples were frozen until analyzed. The remaining concentration of undegraded test substance was determined by LC MSMS. The half-life (T½) was determined from the gradient of the signal of test substance/unit time plot, allowing to calculate the half-life of the test substance, assuming first order kinetics, from the decrease in the concentration of the compound with time. The microsomal clearance (mCl) was calculated from mCl=ln 2/T½/(content of microsomal protein in mg/ml)×1000 (modified from references: Di, The Society for Biomolecular Screening, 2003, 453-462; Obach, DMD, 1999 vol 27. N 11, 1350-1359).

human GlyT1c transporter = target: T1, human GlyT1c transporter (Homo sapiens, UniProt P48067); assay: Radioligand binding assay using recombinant CHO cell membranes expressing human GlyT1; conditions: read-out: radioligand binding Kiapp
T1 construct: expressed in transfected cells; host or cells: recombinant CHO cells (membranes); the uptake assay names the line hGlyT1c_5_CHO
T1 sequence (P48067 1-706): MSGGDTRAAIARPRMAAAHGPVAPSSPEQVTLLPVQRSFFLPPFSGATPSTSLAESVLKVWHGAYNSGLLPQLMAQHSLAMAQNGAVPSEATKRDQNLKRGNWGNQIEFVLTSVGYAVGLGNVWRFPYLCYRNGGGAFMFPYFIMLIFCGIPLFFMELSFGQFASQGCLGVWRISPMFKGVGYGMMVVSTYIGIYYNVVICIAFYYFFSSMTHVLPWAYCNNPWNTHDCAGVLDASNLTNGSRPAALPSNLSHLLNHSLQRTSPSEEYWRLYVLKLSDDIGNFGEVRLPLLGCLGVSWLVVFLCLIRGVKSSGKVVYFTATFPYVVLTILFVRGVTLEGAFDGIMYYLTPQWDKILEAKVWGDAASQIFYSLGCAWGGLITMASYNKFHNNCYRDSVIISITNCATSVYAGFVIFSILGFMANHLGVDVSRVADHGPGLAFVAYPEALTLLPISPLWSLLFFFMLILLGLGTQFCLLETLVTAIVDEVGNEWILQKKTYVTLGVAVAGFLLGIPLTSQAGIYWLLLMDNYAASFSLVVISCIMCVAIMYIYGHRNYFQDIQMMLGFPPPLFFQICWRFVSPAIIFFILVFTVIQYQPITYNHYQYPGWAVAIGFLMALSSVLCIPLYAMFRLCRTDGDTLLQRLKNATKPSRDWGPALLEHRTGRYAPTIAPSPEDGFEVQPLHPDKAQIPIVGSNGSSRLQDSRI
Method: 2. Radioligand Binding Assays Using Recombinant CHO Cell Membranes Expressing Human GlyT1:
Radioligand binding to human GlyT1c transporter-expressing membranes was determined as described in Mezler et al., Molecular Pharmacology 74:1705-1715, 2008.

| SMILES | human mCl [1] | Ki (human GlyT1c transporter) [nM] |
| --- | --- | --- |
| Cn1cnc(S(=O)(=O)NCCOc2ccc3c(c2)C(Cc2ccccc2)NCCO3)c1 (centres unmarked) [Example 48, 1-Methyl-1H-imidazole-4-sulfonic acid [2-(5-benzyl-2,3,4,5-tetrahydro-benzo[f][1,4]oxazepin-7-yloxy)-ethyl]-amide] | ≦50 μl/min/mg | ≤ 100 |
| Cn1cnc(S(=O)(=O)NCCOc2cc3c(cc2F)CCCNC3Cc2ccccc2)c1 (centres unmarked) [Example 45, 1-Methyl-1H-imidazole-4-sulfonic acid [2-(1-benzyl-7-fluoro-2,3,4,5-tetrahydro-1H-benzo[c]azepin-8-yloxy)-ethyl]amide] | ≦50 μl/min/mg | ≤ 100 |
| O=S(=O)(CC1CC1)NCCOc1ccc2c(c1)C(Cc1ccccc1)NCCO2 (centres unmarked) [Example 53, N-[2-(5-Benzyl-2,3,4,5-tetrahydro-benzo[f][1,4]oxazepin-7-yloxy)-ethyl]-C-cyclopropyl-methanesulfonamide] | ≦100 μl/min/mg | ≤ 1000 |
| O=S(=O)(CC1CC1)NCCOc1cc2c(cc1F)CCCNC2Cc1ccccc1 (centres unmarked) [Example 46, N-[2-(1-Benzyl-7-fluoro-2,3,4,5-tetrahydro-1H-benzo[c]azepin-8-yloxy)-ethyl]-C-cyclopropyl-methanesulfonamide] | ≦50 μl/min/mg | ≤ 100 |
| CCS(=O)(=O)NCc1cc2c(cc1F)CCCNC2Cc1ccccc1.O=C(O)C(F)(F)F (centres unmarked) [Example 42, Ethanesulfonic acid (1-benzyl-7-fluoro-2,3,4,5-tetrahydro-1H-benzo[c]azepin-8-ylmethyl)-amide; compound with trifluoro-acetic acid] | ≦50 μl/min/mg | ≤ 1000 |
| O=C(O)/C=C/C(=O)O.O=S(=O)(CC1CC1)NCc1cc2c(cc1F)CCCNC2Cc1ccccc1 (centres unmarked) [Example 44, N-(1-Benzyl-7-fluoro-2,3,4,5-tetrahydro-1H-benzo[c]azepin-8-ylmethyl)-C-cyclopropyl-methanesulfonamide; compound with (E)-but-2-enedioic acid] | ≦50 μl/min/mg | ≤ 100 |
| CCCS(=O)(=O)NCCOc1ccc2c(c1)C(Cc1ccccc1)NCCO2 (centres unmarked) [Example 51, Propane-1-sulfonic acid [2-(5-benzyl-2,3,4,5-tetrahydro-benzo[f][1,4]oxazepin-7-yloxy)-ethyl]-amide] | ≦100 μl/min/mg | ≤ 1000 |
| O=S(=O)(NCCOc1ccc2c(c1)C(Cc1ccccc1)NCCO2)C1CCC1 (centres unmarked) [Example 52, Cyclobutanesulfonic acid [2-(5-benzyl-2,3,4,5-tetrahydro-benzo[f][1,4]oxazepin-7-yloxy)-ethyl]-amide] | ≦100 μl/min/mg | ≤ 1000 |
| Cn1cnc(S(=O)(=O)NCc2ccc3c(c2)C(C(C)(C)c2ccccc2)NCCO3)c1 (centres unmarked) [Example 47, 1-Methyl-1H-imidazole-4-sulfonic acid [5-(1-methyl-1-phenyl-ethyl)-2,3,4,5-tetrahydro-benzo[f][1,4]oxazepin-7-ylmethyl]-amide] |  | ≤ 10000 |
| Cn1cc(S(=O)(=O)NCc2ccc3c(c2)C(Cc2ccc(Cl)cc2)NCCC3)cn1 (centres unmarked) [Example 19, 1-Methyl-1H-pyrazole-4-sulfonic acid [1-(4-chloro-benzyl)-2,3,4,5-tetrahydro-1H-benzo-[c]azepin-8-ylmethyl]-amide] |  | ≤ 100 |
| O=S(=O)(NCc1ccc2c(c1)C(Cc1ccc(Cl)cc1)NCCC2)C1CCC1 (centres unmarked) [Example 17, Cyclobutanesulfonic acid [1-(4-chloro-benzyl)-2,3,4,5-tetra-hydro-1H-benzo[c]azepin-8-ylmethyl]-amide] |  | ≤ 1000 |

The next lines start with the values.

| human mCl [1] | Ki (human GlyT1c transporter) [nM] | SMILES |
| --- | --- | --- |
| ≦50 μl/min/mg | ≤ 10000 | CCS(=O)(=O)NCCOc1ccc2c(c1)C(Cc1ccccc1)NCCO2 (centres unmarked) [Example 50, Ethanesulfonic acid [2-(5-benzyl-2,3,4,5-tetrahydro-benzo[f][1,4]oxazepin-7-yloxy)-ethyl]-amide] |
| ≦50 μl/min/mg | ≤ 1000 | CCS(=O)(=O)NCCOc1cc2c(cc1F)CCCNC2Cc1ccccc1 (centres unmarked) [Example 43, Ethanesulfonic acid [2-(1-benzyl-7-fluoro-2,3,4,5-tetrahydro-1H-benzo-[c]azepin-8-yloxy)-ethyl]-amide] |
|  | ≤ 10 | Cn1cc(S(=O)(=O)NCCOc2ccc3c(c2)C(Cc2cccc(F)c2)NCCC3)cn1 (centres unmarked) [Example 21, 1-Methyl-1H-pyrazole-4-sulfonic acid {2-[1-(3-fluoro-benzyl)-2,3,4,5-tetrahydro-1H-benzo[c]azepin-8-yloxy]-ethyl}-amide] |
|  | ≤ 1000 | CCS(=O)(=O)NCCOc1ccc2c(c1)C(Cc1cccc(F)c1)NCCC2 (centres unmarked) [Example 25, Ethanesulfonic acid {2-[1-(3-fluoro-benzyl)-2,3,4,5-tetrahydro-1H-benzo[c]azepin-8-yloxy]-ethyl}-amide] |
|  | ≤ 10 | Cn1cc(S(=O)(=O)NCc2ccc3c(c2)C(Cc2cccc(F)c2)NCCC3)cn1 (centres unmarked) [Example 26, 1-Methyl-1H-pyrazole-4-sulfonic acid [1-(3-fluoro-benzyl)-2,3,4,5-tetrahydro-1H-benzo[c]azepin-8-ylmethyl]-amide] |
|  | ≤ 1000 | CCCS(=O)(=O)NCCOc1ccc2c(c1)C(Cc1ccc(Cl)cc1)NCCC2 (centres unmarked) [Example 8, Propane-1-sulfonic acid {2-[1-(4-chlorobenzyl)-2,3,4,5-tetrahydro-1H-benzo[c]azepin-8-yloxy]-ethyl}-amide] |
|  | ≤ 10 | Cn1cnc(S(=O)(=O)NCCOc2ccc3c(c2)C(Cc2cccc(F)c2)NCCC3)c1 (centres unmarked) [Example 20, 1-Methyl-1H-imidazole-4-sulfonic acid {2-[1-(3-fluoro-benzyl)-2,3,4,5-tetrahydro-1H-benzo[c]azepin-8-yloxy]-ethyl}-amide] |
|  | ≤ 1000 | O=S(=O)(CC1CC1)NCCOc1ccc2c(c1)C(Cc1ccc(Cl)cc1)NCCC2 (centres unmarked) [Example 12, N-{2-[1-(4-Chlorobenzyl)-2,3,4,5-tetrahydro-1H-benzo[c]azepin-8-yloxy]-ethyl}-C-cyclopropyl-methanesulfonamide] |
